Assay [1] has as its system H460 (human lung cancer cell). Briefly: In vitro anti-tumor cellular activity (MTT), H460. It counts as cell-based. The following applies: Homo sapiens, read-out: H460 IC50.
Assay [2] relates to U87MG (Human malignant glioblastoma cells). Briefly: In vitro anti-tumor cellular activity (MTT), U87MG. It counts as cell-based. The following applies: Homo sapiens, U-87 MG, read-out: U87MG IC50.
The test system of assay [3] is HT-29 (colon cancer cell). Briefly: In vitro anti-tumor cellular activity (MTT), HT-29. The assay is classed as cell-based, human. Conditions: Homo sapiens, read-out: HT-29 IC50.
Assay [4] has as its system MKN-45 (human gastric carcinoma cell). As to the kind of experiment: In vitro anti-tumor cellular activity (MTT), MKN-45. The assay is classed as cell-based. The following applies: Homo sapiens, read-out: MKN-45 IC50.
In assay [5] the test system is SMMC-7721 (hepatoma cell). As to the kind of experiment: In vitro anti-tumor cellular activity (MTT), SMMC-7721. It counts as cell-based, human. The following applies: Homo sapiens, read-out: SMMC-7721 IC50.
The target of assay [6] is T1, c-Met (His-tagged recombinant human Met (Amino acids 974-ends)) (Homo sapiens, UniProt P08581).
T1 construct: His-tagged recombinant human Met (Amino acids 974-ends); His; host or cells: baculovirus expression
As to the kind of experiment: c-Met kinase assay (ELISA). It counts as biochemical. Conditions: 50 pM c-Met, 5 μM ATP, 20 min. Here is the method: c-Met kinase activity was measured with an ELISA reader.
The reaction mixture was removed by washing with 0.2 μg/mL conjugated horseradish peroxidase (HRP) monoclonal antibody specific for phosphotyrosine (PY20) detecting phosphorylation of the substrate polymer. 1M phosphoric acid was added to terminate the color, the chromogenic substrate (TMB) was tested by spectrophotometry at 450 nm.
On the technique in general: ELISA stands for enzyme-linked immunosorbent assay.

Values after ≈ are worked out from the molar mass of the structure shown. Like-named read-outs stand apart in the source and are kept apart here.

T1 sequence (P08581 974-1390 limits assumed): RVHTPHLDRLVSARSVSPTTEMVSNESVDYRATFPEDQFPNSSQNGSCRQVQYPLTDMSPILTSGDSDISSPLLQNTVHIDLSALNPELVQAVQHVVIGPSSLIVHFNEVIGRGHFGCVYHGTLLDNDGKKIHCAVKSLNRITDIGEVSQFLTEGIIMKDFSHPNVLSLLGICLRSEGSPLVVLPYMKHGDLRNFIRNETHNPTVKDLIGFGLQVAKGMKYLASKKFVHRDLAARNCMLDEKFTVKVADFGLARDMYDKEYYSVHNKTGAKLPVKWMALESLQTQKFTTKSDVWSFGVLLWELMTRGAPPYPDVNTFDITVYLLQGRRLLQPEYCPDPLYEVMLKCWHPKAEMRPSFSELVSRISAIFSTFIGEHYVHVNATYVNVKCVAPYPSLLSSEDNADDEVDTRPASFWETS

Consider `COc1cc2c(Oc3ccc(NC(=O)c4nn(-c5ccccc5C(F)(F)F)c5ccccc5c4=O)cc3F)ccnc2cc1OCCCN1CCCC1.Cl.Cl` [Example 1, N-(3-fluoro-4-((6-methoxy-7-(3-(pyrrolidin-1-yl)propoxy)quinolin-4-yl)oxy)phenyl)-1-(2-(trifluoromethyl)phenyl)-4-oxo-1,4-dihydrocinnoline-3-carboxamide dihydrochloride], for which the IC50 in assay [1] (NCI-H460, MTT, 72 hours, H460) was 0.04 µg/mL; in assay [2] (MTT, 72 hours, U87MG), 0.18 µg/mL; in assay [3] (MTT, 72 hours, HT-29), 0.18 µg/mL; in assay [4] (MTT, 72 hours, MKN-45) it was 0.27 µg/mL; in assay [5] (MTT, 72 hours, SMMC-7721), 0.57 µg/mL; in assay [6], 62.5 nM.

Turning to `COc1cc2c(Oc3ccc(NC(=O)c4nn(-c5ccc(F)c(F)c5)c5ccccc5c4=O)cc3F)ccnc2cc1OCCCN1CCCCC1` [Example 11, N-(3-fluoro-4-((6-methoxy-7-(3-(piperidin-1-yl)propoxy)quinolin-4-yl)oxy)phenyl)-1-(3,4-difluorophenyl)-4-oxo-1,4-dihydrocinnoline-3-carboxamide], the IC50 in assay [1] (NCI-H460, MTT, 72 hours, H460) was 0.06 µg/mL (≈ 0.0845 µM); in assay [2] (MTT, 72 hours, U87MG) it was 3.5 µg/mL (≈ 4.93 µM); in assay [3] (MTT, 72 hours, HT-29), 0.38 µg/mL (≈ 0.535 µM); in assay [4] (MTT, 72 hours, MKN-45), 0.12 µg/mL (≈ 0.169 µM); in assay [5] (MTT, 72 hours, SMMC-7721), 0.63 µg/mL (≈ 0.888 µM); in assay [6] it was 42.3 nM.

`COc1cc2c(Oc3ccc(NC(=O)c4nn(-c5ccc(F)cc5Br)c5ccccc5c4=O)cc3F)ccnc2cc1OCCCN1CCN(C)CC1` [Example 19, N-(3-fluoro-4-((6-methoxy-7-(3-(4-methylpiperazin-1-yl)propoxy)quinolin-4-yl)oxy)phenyl)-1-(2-bromo-4-fluorophenyl)-4-oxo-1,4-dihydrocinnoline-3-carboxamide]: the IC50 in assay [1] (NCI-H460, MTT, 72 hours, H460) is 2.2 µg/mL (≈ 2.8 µM); in assay [2] (MTT, 72 hours, U87MG), 1.2 µg/mL (≈ 1.53 µM); in assay [3] (MTT, 72 hours, HT-29), 0.54 µg/mL (≈ 0.687 µM); in assay [4] (MTT, 72 hours, MKN-45), 0.86 µg/mL (≈ 1.09 µM); in assay [5] (MTT, 72 hours, SMMC-7721), 1.6 µg/mL (≈ 2.04 µM); in assay [6], 1530 nM.

For the compound `COc1cc2c(Oc3ccc(NC(=O)c4nn(-c5cc(C(F)(F)F)ccc5Cl)c5ccccc5c4=O)cc3F)ccnc2cc1OCCCN1CCCCC1` [Example 20, N-(3-fluoro-4-((6-methoxy-7-(3-(piperidin-1-yl)propoxy)quinolin-4-yl)oxy)phenyl)-1-(2-chloro-5-(trifluoromethyl)phenyl)-4-oxo-1,4-dihydrocinnoline-3-carboxamide], the IC50 is 1.1 µg/mL (≈ 1.42 µM) in assay [1] (NCI-H460, MTT, 72 hours, H460); 1.3 µg/mL (≈ 1.67 µM) in assay [2] (MTT, 72 hours, U87MG); 0.7 µg/mL (≈ 0.902 µM) in assay [3] (MTT, 72 hours, HT-29); 1.6 µg/mL (≈ 2.06 µM) in assay [4] (MTT, 72 hours, MKN-45); 0.5 µg/mL (≈ 0.644 µM) in assay [5] (MTT, 72 hours, SMMC-7721); 1930 nM in assay [6].

As for `COc1cc2c(Oc3ccc(NC(=O)c4nn(-c5cc(C(F)(F)F)ccc5Cl)c5ccccc5c4=O)cc3F)ccnc2cc1OCCCN1CCC(C)CC1` [Example 21, N-(3-fluoro-4-((6-methoxy-7-(3-(4-methylpiperidin-1-yl)propoxy)quinolin-4-yl)oxy)phenyl)-1-(2-chloro-5-(trifluoromethyl)phenyl)-4-oxo-1,4-dihydrocinnoline-3-carboxamide], the IC50 in assay [1] (NCI-H460, MTT, 72 hours, H460) is 0.8 µg/mL (≈ 1.01 µM); in assay [2] (MTT, 72 hours, U87MG), 0.7 µg/mL (≈ 0.886 µM); in assay [3] (MTT, 72 hours, HT-29), 0.8 µg/mL (≈ 1.01 µM); in assay [4] (MTT, 72 hours, MKN-45), 0.6 µg/mL (≈ 0.759 µM); in assay [5] (MTT, 72 hours, SMMC-7721), 1.4 µg/mL (≈ 1.77 µM); in assay [6], 1140 nM.

Consider `COc1cc2c(Oc3ccc(NC(=O)c4nn(-c5cc(C(F)(F)F)ccc5Cl)c5ccccc5c4=O)cc3F)ccnc2cc1OCCCN1CCN(C)CC1` [Example 23, N-(3-fluoro-4-((6-methoxy-7-(3-(4-methylpiperazin-1-yl)propoxy)quinolin-4-yl)oxy)phenyl)-1-(2-chloro-5-(trifluoromethyl)phenyl)-4-oxo-1,4-dihydrocinnoline-3-carboxamide], for which the IC50 in assay [1] (NCI-H460, MTT, 72 hours, H460) is 1 µg/mL (≈ 1.26 µM); in assay [2] (MTT, 72 hours, U87MG), 1.3 µg/mL (≈ 1.64 µM); in assay [3] (MTT, 72 hours, HT-29), 0.7 µg/mL (≈ 0.885 µM); in assay [4] (MTT, 72 hours, MKN-45) it was 0.9 µg/mL (≈ 1.14 µM); in assay [5] (MTT, 72 hours, SMMC-7721) it was 1.4 µg/mL (≈ 1.77 µM); in assay [6], 404 nM.

On to `COc1cc2c(Oc3ccc(NC(=O)c4nn(-c5ccc(C)cc5C)c5ccccc5c4=O)cc3F)ccnc2cc1OCCCN1CCC(C)CC1` [Example 24, N-(3-fluoro-4-((6-methoxy-7-(3-(4-methylpiperidin-1-yl)propoxy)quinolin-4-yl)oxy)phenyl)-1-(2,4-dimethylphenyl)-4-oxo-1,4-dihydrocinnoline-3-carboxamide], for which the 50% inhibitory concentration (IC50) in assay [1] (NCI-H460, MTT, 72 hours, H460) was 1.1 µg/mL (≈ 1.54 µM); in assay [2] (MTT, 72 hours, U87MG), 2.8 µg/mL (≈ 3.91 µM); in assay [3] (MTT, 72 hours, HT-29) it was 1.4 µg/mL (≈ 1.96 µM); in assay [4] (MTT, 72 hours, MKN-45), 0.8 µg/mL (≈ 1.12 µM); in assay [5] (MTT, 72 hours, SMMC-7721), 0.86 µg/mL (≈ 1.2 µM); in assay [6] it was 1260 nM.

Turning to `COc1cc2c(Oc3ccc(NC(=O)c4nn(-c5ccc(C)cc5C)c5ccccc5c4=O)cc3F)ccnc2cc1OCCCN1CCN(C)CC1` [Example 26, N-(3-fluoro-4-((6-methoxy-7-(3-(4-methylpiperazin-1-yl)propoxy)quinolin-4-yl)oxy)phenyl)-1-(2,4-dimethylphenyl)-4-oxo-1,4-dihydrocimloline-3-carboxamide], the IC50 in assay [1] (NCI-H460, MTT, 72 hours, H460) was 0.8 µg/mL (≈ 1.12 µM); in assay [2] (MTT, 72 hours, U87MG), 1.8 µg/mL (≈ 2.51 µM); in assay [3] (MTT, 72 hours, HT-29), 1.4 µg/mL (≈ 1.95 µM); in assay [4] (MTT, 72 hours, MKN-45), 0.7 µg/mL (≈ 0.977 µM); in assay [5] (MTT, 72 hours, SMMC-7721), 1.6 µg/mL (≈ 2.23 µM); in assay [6], 419 nM.

As to `COc1cc2c(Oc3ccc(NC(=O)c4nn(-c5ccc(Cl)cc5Cl)c5ccccc5c4=O)cc3F)ccnc2cc1OCCCN1CCC(C)CC1` [Example 28, N-(3-fluoro-4-((6-methoxy-7-(3-(4-methylpiperidin-1-yl)propoxy)quinolin-4-yl)oxy)phenyl)-1-(2,4-dichlorophenyl)-4-oxo-1,4-dihydrocinnoline-3-carboxamide], the IC50 in assay [1] (NCI-H460, 72 h) is 2.3 µg/mL (≈ 3.04 µM); in assay [2] (72 h) it was 1.6 µg/mL (≈ 2.11 µM); in assay [3] (HT-29, 72 h) it was 0.9 µg/mL (≈ 1.19 µM); in assay [4] (MKN-45, 72 h) it was 1.8 µg/mL (≈ 2.38 µM); in assay [5] (SMMC-7721, 72 h), 1.3 µg/mL (≈ 1.72 µM); in assay [6] it was 1720 nM.

`COc1cc2c(Oc3ccc(NC(=O)c4nn(-c5ccccc5F)c5ccccc5c4=O)cc3F)ccnc2cc1OCCCN1CCCC1` [Example 41, N-(3-fluoro-4-((6-methoxy-7-(3-(pyrrolidin-1-yl)propoxy)quinolin-4-yl)oxy)phenyl)-1-(2-fluorophenyl)-4-oxo-1,4-dihydrocinnoline-3-carboxamide]: the IC50 in assay [6] was 2070 nM.

In the case of `COc1cc2c(Oc3ccc(NC(=O)c4nn(-c5ccc(F)cc5)c5ccccc5c4=O)cc3F)ccnc2cc1OCCCN1CCN(C)CC1` [Example 42, N-(3-fluoro-4-((6-methoxy-7-(3-(4-methylpiperazin-1-yl)propoxy)quinolin-4-yl)oxy)phenyl)-1-(4-fluorophenyl)-4-oxo-1,4-dihydrocinnoline-3-carboxamide], the IC50 in assay [1] (NCI-H460, MTT, 72 hours, H460) is 2.7 µg/mL (≈ 3.82 µM); in assay [2] (MTT, 72 hours, U87MG) it was 2.1 µg/mL (≈ 2.97 µM); in assay [3] (MTT, 72 hours, HT-29), 1.5 µg/mL (≈ 2.12 µM); in assay [5] (MTT, 72 hours, SMMC-7721) it was 1.6 µg/mL (≈ 2.26 µM); in assay [6], 1410 nM.

As for `COc1cc2c(Oc3ccc(NC(=O)c4cn(-c5ccc(F)c(F)c5)c5ccccc5c4=O)cc3F)ccnc2cc1OCCCN1CCCCC1` [Example 60, N-(3-fluoro-4-((6-methoxy-7-(3-(piperidin-1-yl)propoxy)quinolin-4-yl)oxy)phenyl)-1-(3,4-difluorophenyl)-4-oxo-1,4-dihydroquinoline-3-carboxamide], the IC50 in assay [6] was 409 nM.

Consider `COc1cc2c(Oc3ccc(NC(=O)c4nn(-c5ccccc5F)c5ccccc5c4=O)cc3F)cnnc2cc1OCCCN1CCCC1` [Example 63, N-(3-fluoro-4-((6-methoxy-7-(3-(pyrrolidin-1-yl)propoxy)cinnolin-4-yl)oxy)phenyl)-1-(2-fluorophenyl)-4-oxo-1,4-dihydrocinnoline-3-carboxamide], for which the half-maximal inhibitory concentration (IC50) is 1.6 µg/mL (≈ 2.36 µM) in assay [1] (NCI-H460, MTT, 72 hours, H460); 1.8 µg/mL (≈ 2.65 µM) in assay [2] (MTT, 72 hours, U87MG); 1.3 µg/mL (≈ 1.92 µM) in assay [3] (MTT, 72 hours, HT-29); 0.9 µg/mL (≈ 1.33 µM) in assay [5] (MTT, 72 hours, SMMC-7721); 1180 nM in assay [6].

Consider `COc1cc2c(Oc3ccc(NC(=O)c4nn(-c5ccc(Br)cc5)c5ccccc5c4=O)cc3F)cnnc2cc1OCCCN1CCCCC1` [Example 65, N-(3-fluoro-4-((6-methoxy-7-(3-(piperidin-1-yl)propoxy)cinnolin-4-yl)oxy)phenyl)-1-(4-bromophenyl)-4-oxo-1,4-dihydrocinnoline-3-carboxamide], for which the IC50 in assay [6] was 902 nM.

As to `COc1cc2c(Oc3ccc(NC(=O)c4nn(-c5ccc(Cl)cc5Cl)c5ccccc5c4=O)cc3F)cnnc2cc1OCCCN1CCCC1` [Example 70, N-(3-fluoro-4-((6-methoxy-7-(3-(pyrrolidin-1-yl)propoxy)cinnolin-4-yl)oxy)phenyl)-1-(2,4-dichlorophenyl)-4-oxo-1,4-dihydrocinnoline-3-carboxamide], the half-maximal inhibitory concentration (IC50) in assay [1] (NCI-H460, 72 h) was 2.6 µg/mL (≈ 3.56 µM); in assay [2] (72 h) it was 2.1 µg/mL (≈ 2.88 µM); in assay [3] (HT-29, 72 h) it was 3.2 µg/mL (≈ 4.39 µM); in assay [5] (SMMC-7721, 72 h), 1.8 µg/mL (≈ 2.47 µM); in assay [6], 959 nM.

Consider “N-(3-fluoro-4-((6-methoxy-7-(3-(4-methylpiperazin-1-yl)propoxy)quinolin-4-yl)oxy)phenyl)-1-(4-bromophenyl)-4-oxo-1,4-dihydrocinnoline-3-carboxamide [Example 40]”, for which the “c-Met IC50” value in assay [6] worked out at 0.9 µg/mL.

As a reminder, the IC50 is the concentration that gives 50% inhibition.
